Test results published in patent publication US8753570B2, “Structure, synthesis, and applications for oligo phenylene ethynylenes” (STC.UNM, priority 2008, dated 2014).

Tested on: Bacillus atrophaeus
Test: Dark and uv biocidal activity
Type: cell-based

With `C[N+](C)(C)CCCOc1ccc(C#Cc2ccc(C#Cc3ccc(OCCC[N+](C)(C)C)cc3)cc2)cc1` [S-OPE-EO] the killing under uv (365 nm uv light, 30 minutes) was “almost the same level killing”, the “killing in the dark” value (dark, 6 hour exposure) was “several log kills” and the biocidal activity (in the dark and upon uv irradiation) was “remarkable biocidal activity”.
